Data published in the supplement of paper PMC6045584.
± gives the standard deviation of the averaged measurements.

Assays:
17-AAG = compound: C=CCNC1=C2C[C@@H](C)C[C@H](OC)[C@H](O)[C@@H](C)/C=C(\C)[C@H](OC(N)=O)[C@@H](OC)/C=C\C=C(/C)C(=O)NC(=CC1=O)C2=O [17-AAG]; experiment: area under dose-response curve of surviving fraction (unscaled, Aref=0) (surviving fraction x log10(nM)); higher = more resistant; settings: exposure time: 5 days; dose range 0.5-1000 nM
Outline: (§1)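 Tumour cell lines in 384-well plates were exposed to eight inhibitor concentrations, from 0.5 to 1000 nM, for five days, and viability was read by CellTiter-Glo luminescence in three screens per line. Signals were normalised to DMSO-only wells, and 3-parameter logistic regression in the drc R package fitted dose-response survival curves to the surviving fractions. Area under the curve is given as the unscaled activity area. That area is taken over log10 dose with Aref = 0.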

DOXORUBICIN [1] = compound: T1, COc1cccc2c1C(=O)c1c(O)c3c(c(O)c1C2=O)C[C@@](O)(C(=O)CO)C[C@@H]3O[C@H]1C[C@H](N)[C@H](O)[C@H](C)O1 [DOXORUBICIN]; experiment: as above; settings: exposure time: 5 days; dose range 0.5-1000 nM
Outline: as §1

VISMODEGIB = compound: CS(=O)(=O)c1ccc(C(=O)Nc2ccc(Cl)c(-c3ccccn3)c2)c(Cl)c1 [VISMODEGIB]; experiment: as above; settings: exposure time: 5 days; dose range 0.5-1000 nM
Outline: as §1

SALINOMYCIN = compound: CC[C@@H](C(=O)[C@@H](C)[C@@H](O)[C@H](C)[C@@H]1O[C@@H]([C@@H](CC)C(=O)O)CC[C@@H]1C)[C@H]1O[C@]2(C=C[C@@H](O)[C@]3(CC[C@@](C)([C@H]4CC[C@](O)(CC)[C@H](C)O4)O3)O2)[C@H](C)C[C@@H]1C [SALINOMYCIN]; experiment: surviving fraction relative to DMSO-only wells; higher = less growth inhibition; settings: exposure time: 5 days
Outline: (§2)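 For each tumour cell line, log-phase cells were put into 384-well plates at 250–500 cells per well, then after 24 hours exposed continuously for five days to inhibitors at 0.5, 1, 5, 10, 50, 100, 500 and 1000 nM. Viability was assessed by CellTiter-Glo luminescence, with surviving fraction expressed relative to the median of DMSO-only wells. Lines were screened three times and retained only if replicate Pearson r exceeded 0.7 and median Z' exceeded 0.3.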

DOXORUBICIN [2] = compound: T1, DOXORUBICIN; experiment: as above; settings: exposure time: 5 days
Outline: as §2

Test System | area under dose-response curve (17-AAG) | area under dose-response curve (DOXORUBICIN [1]) | area under dose-response curve (VISMODEGIB) | surviving fraction (SALINOMYCIN; 0.5 nM) | surviving fraction (SALINOMYCIN; 1 nM) | surviving fraction (SALINOMYCIN; 5 nM) | surviving fraction (SALINOMYCIN; 10 nM) | surviving fraction (SALINOMYCIN; 50 nM) | surviving fraction (SALINOMYCIN; 100 nM) | surviving fraction (SALINOMYCIN; 500 nM) | surviving fraction (SALINOMYCIN; 1000 nM) | surviving fraction (DOXORUBICIN [2]; 0.5 nM) | surviving fraction (DOXORUBICIN [2]; 1 nM) | surviving fraction (DOXORUBICIN [2]; 5 nM) | surviving fraction (DOXORUBICIN [2]; 10 nM) | surviving fraction (DOXORUBICIN [2]; 50 nM) | surviving fraction (DOXORUBICIN [2]; 100 nM) | surviving fraction (DOXORUBICIN [2]; 500 nM) | surviving fraction (DOXORUBICIN [2]; 1000 nM)
HMLE3 BREAST | 1.61 | 1.36 | 3.06 | 0.898 ± 0.036 | 0.894 ± 0.1 | 1.02 ± 0.028 | 0.926 ± 0.09 | 1.19 ± 0.032 | 0.988 ± 0.028 | 0.056 ± 0.0095 | 0.0347 ± 0.0042 | 0.941 ± 0.088 | 1.04 ± 0.046 | 0.744 ± 0.081 | 0.405 ± 0.0065 | 0.231 ± 0.022 | 0.069 ± 0.018 | 0.02 ± 0.001 | 0.0223 ± 0.00058
HMT3552 BREAST | – | – | – | 1.07 | 1 | 1.07 | 1.11 | 1.13 | 1.05 | 0.801 | 0.728 | 1.09 | 0.911 | 0.949 | 0.817 | 0.154 | 0.167 | 0.099 | 0.027
HS57T BREAST | – | – | – | 0.986 ± 0.077 | 0.949 ± 0.062 | 1.07 ± 0.057 | 1.03 ± 0.042 | 1.03 ± 0.013 | 0.813 ± 0.036 | 0.28 ± 0.02 | 0.158 ± 0.011 | 0.98 ± 0.066 | 0.906 ± 0.1 | 0.478 ± 0.09 | 0.318 ± 0.015 | 0.353 ± 0.045 | 0.124 ± 0.015 | 0.0277 ± 0.0011 | 0.0273 ± 0.0011
HS578T BREAST | 1.45 | 1.93 | 3.11 | 0.874 ± 0.12 | 0.894 ± 0.036 | 0.993 ± 0.16 | 1.01 ± 0.11 | 1.05 ± 0.076 | 0.826 ± 0.096 | 0.589 ± 0.033 | 0.526 ± 0.041 | 0.922 ± 0.097 | 0.958 ± 0.092 | 0.838 ± 0.1 | 0.693 ± 0.013 | 0.483 ± 0.046 | 0.489 ± 0.066 | 0.094 ± 0.02 | 0.037 ± 0.0079
